Literature values as cited in patent US7348299B2, “Cleansing bar with distributed polymeric network providing enhanced delivery” (Conopco, Inc., priority 2005, dated 2008).

Tests used:
[1] = single component of 1:1 model perfume; no unit in table, K in Atm
[2] = single component of 1:1 model perfume; first/second component

Compound: Methyl ionone
- K (volatility constant) [1]: 5.2

Compound: CC(CC=O)CCCC(C)(C)O (stereo not shown) [hydroxycitonellal]
- K (volatility constant) [1]: 0.05
- φo/w (octanol/water partition coefficient) [2]: 34.7

Compound: CC(=O)OCCC(C)CCC=C(C)C (stereo not shown) [citronellyl acetate]
- K (volatility constant) [1]: 6
- φo/w (octanol/water partition coefficient) [2]: 19,054

Compound: CCC(C)(CCCC(C)C)OC(C)=O (stereo not shown) [Tetrahydrolinalylacetate]
- K (volatility constant) [1]: 5.5
- φo/w (octanol/water partition coefficient) [2]: 31,600

Compound: CC(=O)OCc1ccccc1 [Benzyl acetate]
- K (volatility constant) [1]: 0.32
- φo/w (octanol/water partition coefficient) [2]: 81

Compound: C=C(C)[C@H]1CC=C(C)CC1 [Limonene]
- K (volatility constant) [1]: 98

Compound: C=CC(C)CCC=C(C)C (stereo not shown) [citronellene]
- K (volatility constant) [1]: 120
- φo/w (octanol/water partition coefficient) [2]: 43,651

Compound: OCCc1ccccc1 [Phenylethylalcohol]
- K (volatility constant) [1]: 0.1
- φo/w (octanol/water partition coefficient) [2]: 22.9

Compound: Cc1ccc(C(C)C)cc1 [p-cymene]
- K (volatility constant) [1]: 265
- φo/w (octanol/water partition coefficient) [2]: 31,000

Compound: CC=O [acetaldehyde]
- K (volatility constant) [1]: 0.008
- φo/w (octanol/water partition coefficient) [2]: 167

Compound: CC(C=O)Cc1ccc(C(C)(C)C)cc1 (stereo not shown) [lilial]
- K (volatility constant) [1]: 0.42
- φo/w (octanol/water partition coefficient) [2]: 32,360

Compound: CC1=CCC2CC1C2(C)C (stereo not drawn) [alpha-pinene]
- K (volatility constant) [1]: 280
- φo/w (octanol/water partition coefficient) [2]: 29648
